Here are results for eleven molecules from patent publication US7595320B2, “Hydrazinocarbonyl-thieno[2,3-C]pyrazoles, process for preparing them, compositions containing them and use thereof” (Aventis Pharma S.A., priority 2005, dated 2009).

Counter-ions that a name gives are not always drawn.

For data set [1], the target named is T1, CDK2/cycline E (Homo sapiens, UniProt P24941).
T1 construct: made in house; host or cells: Sf21 insect cells (baculovirus coinfection)
Description: CDK2/cyclineE Flashplate test in 96-well format. The class given is biochemical. The conditions noted are these: CDK2/cycline E complex, 1 μM ATP. The method in brief:
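Recombinant human CDK2/cyclin E (His-tagged cyclin E, coexpressed in Sf21 cells), 20 nM, phosphorylates biotinylated pRb peptide (10 μM) with 1 μM ATP plus [γ-33P]ATP in HEPES pH 7.5, MgCl2, DTT at 30 °C. Inhibitors tested at 10 μM down to 0.014 μM; 33P incorporation read by scintillation on streptavidin plates.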

The target of data set [2] is T2, Tie2 (Homo sapiens, UniProt Q02763).
T2 construct: amino acids of the intracellular domain 776-1124; made in house; host or cells: baculovirus expression (pFastBacGT vector)
Kind of data set: Tie2 kinase test, phosphorylation of PLC with GST-Tie2. The class given is biochemical. The conditions noted are these: GST-Tie2 intracellular domain 776-1124.

In data set [3] the target is T3, Aurora1 (Homo sapiens, UniProt Q96GD4).
T3 construct: His tag (N); made in house
Description: Aurora1 enzymatic test, NuMA phosphorylation with [33P]ATP, Flashplate. The class given is biochemical. The note with it: Aurora-B/INCENP-C3 recombinant complex, 1 μM ATP. The method in brief: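 Recombinant His-tagged Aurora-B/INCENP-C3 complex (10 nM) phosphorylates 500 nM His-NuMA fragment with 1 µM ATP plus [33P]ATP, 30 minutes at 37° C in Tris pH 7.5 with 5 mM MgCl2, on nickel-chelate Flashplates. Incorporated 33P counted; percent inhibition versus enzyme control after no-enzyme background subtraction.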

The target in data set [4] is T4, Aurora2 (Homo sapiens, UniProt O14965).
T4 construct: Aurora2: whole recombinant protein comprising an N-terminal histidine tail; His tag (N); made in house; host or cells: E. coli
T4 sequence (O14965 1-403): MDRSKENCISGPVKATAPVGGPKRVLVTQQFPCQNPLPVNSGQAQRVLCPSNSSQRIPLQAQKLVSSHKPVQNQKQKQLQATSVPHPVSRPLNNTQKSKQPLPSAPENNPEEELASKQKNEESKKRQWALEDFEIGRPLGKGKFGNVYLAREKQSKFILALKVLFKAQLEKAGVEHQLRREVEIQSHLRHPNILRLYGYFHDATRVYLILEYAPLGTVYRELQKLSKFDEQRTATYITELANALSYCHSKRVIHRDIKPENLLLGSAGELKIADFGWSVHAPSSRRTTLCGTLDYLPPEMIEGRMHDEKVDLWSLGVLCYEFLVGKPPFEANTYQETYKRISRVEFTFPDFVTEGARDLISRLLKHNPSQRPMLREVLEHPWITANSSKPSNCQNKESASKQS
Description: Aurora2 enzymatic test, NuMA phosphorylation with [33P]ATP, Flashplate. The class given is biochemical. The conditions noted are these: whole recombinant protein, 1 μM ATP. The essentials: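 Full-length His-tagged Aurora2 (E. coli, >82% pure) at 10 nM phosphorylated 500 nM His-NuMA fragment on Ni-chelate Flashplates. Conditions were pH 7.5 Tris buffer with 10 mM MgCl2, 1 μM ATP plus [33P]ATP, 30 min at 37 °C.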

Broadly, the melting point is the temperature of the solid-liquid transition. As a reminder, the IC50 is the midpoint of a concentration-inhibition curve.

T2 sequence (Q02763 776-1124): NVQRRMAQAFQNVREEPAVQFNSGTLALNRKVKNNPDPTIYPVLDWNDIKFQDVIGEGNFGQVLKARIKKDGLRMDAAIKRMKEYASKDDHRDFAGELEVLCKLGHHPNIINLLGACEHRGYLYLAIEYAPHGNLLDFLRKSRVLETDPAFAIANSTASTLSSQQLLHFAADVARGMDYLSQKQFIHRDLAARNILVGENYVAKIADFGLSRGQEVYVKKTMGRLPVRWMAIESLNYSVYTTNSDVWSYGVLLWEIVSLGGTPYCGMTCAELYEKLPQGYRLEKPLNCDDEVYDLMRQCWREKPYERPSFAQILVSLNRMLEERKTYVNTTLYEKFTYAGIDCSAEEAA
T3 sequence (Q96GD4 whole entry, species assumed): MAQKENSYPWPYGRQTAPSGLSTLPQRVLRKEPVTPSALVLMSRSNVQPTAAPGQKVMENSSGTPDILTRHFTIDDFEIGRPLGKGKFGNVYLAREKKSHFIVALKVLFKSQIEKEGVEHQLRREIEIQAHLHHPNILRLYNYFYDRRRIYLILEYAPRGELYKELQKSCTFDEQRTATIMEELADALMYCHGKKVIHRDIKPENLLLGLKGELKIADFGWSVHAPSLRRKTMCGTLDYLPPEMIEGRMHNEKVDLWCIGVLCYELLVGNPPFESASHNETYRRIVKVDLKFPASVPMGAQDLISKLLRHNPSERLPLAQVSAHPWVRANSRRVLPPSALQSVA
T3 sequence (Q9NQS7 835-903 partner limits assumed, species assumed): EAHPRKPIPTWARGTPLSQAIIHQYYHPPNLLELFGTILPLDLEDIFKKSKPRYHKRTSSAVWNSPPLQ

In turn, `CN1CCCN(Cc2ccc(C(=O)Nc3n[nH]c4sc(C(=O)NN(C)c5ccc(Cl)cc5)cc34)cc2)CC1` (as salt: salt) [Example 12b, 4-(4-methylperhydro-1,4-diazepin-1-ylmethyl)-N-[5-(N′-(4-chlorophenyl)-N′-methylhydrazinocarbonyl)-1H-thieno[2,3-c]pyrazol-3-yl]benzamide] came in with a melting point of 162 °C.
On to `CN(NC(=O)c1cc2c(NC(=O)c3ccc(CN4CCOCC4)cc3)n[nH]c2s1)c1ccccc1` [Example 8, N-[5-(N′-methyl-N′-phenylhydrazinocarbonyl)-1H-thieno[2,3-c]pyrazol-3-yl]-4-morpholin-4-ylmethylbenzamide], for which the melting point worked out at 242 °C. In addition, the IC50 in data set [1] stood at 134 nM. In data set [2], this molecule gave a half-inhibitory concentration (IC50) of 252 nM. The IC50 in data set [3] came out at 29 nM. Also, the IC50 in data set [4] is 8 nM.
The matching figures for `CN(NC(=O)c1cc2c(NC(=O)c3ccc(Br)cc3)n[nH]c2s1)c1ccccc1` [Example 9, 4-bromo-N-[5-(N′-methyl-N′-phenylhydrazinocarbonyl)-1H-thieno[2,3-c]pyrazol-3-yl]benzamide]: 172 °C, 65 nM, 820 nM, 131 nM and 157 nM.
As to `CN(Cc1ccc(C(=O)Nc2n[nH]c3sc(C(=O)NN(C)c4ccccc4)cc23)cc1)c1ccccc1` [Example 24, 4-[(methylphenylamino)methyl]-N-[5-(N′-methyl-N′-phenylhydrazinocarbonyl)-1H-thieno[2,3-c]pyrazol-3-yl]benzamide], the melting point is 242 °C. This molecule had an IC50 in data set [1] of 1490 nM. In data set [2], the 50% inhibitory concentration (IC50) was 1030 nM. For the same molecule, the IC50 in data set [3] amounted to 288 nM. Besides, in data set [4], the IC50 was 49 nM.
Consider `CCN(NC(=O)c1cc2c(NC(=O)c3ccc(N4CCN(C)CC4)cc3)n[nH]c2s1)c1ccccc1C` [Example 39, N-[5-(N′-ethyl-N′-o-tolylhydrazinocarbonyl)-1H-thieno[2,3-c]pyrazol-3-yl]-4-(4-methylpiperazin-1-yl)benzamide], for which the concentration for half-maximal inhibition (IC50) in data set [1] turned out to be 53 nM; in data set [2], 22 nM; in data set [3], 15 nM; in data set [4], 27 nM.
In the same order, the values of `CCN(NC(=O)c1cc2c(NC(=O)c3ccc(N4CCN(C)CC4)cc3)n[nH]c2s1)c1cccc(C)c1` [Example 40, N-[5-(N′-ethyl-N′-m-tolylhydrazinocarbonyl)-1H-thieno[2,3-c]pyrazol-3-yl]-4-(4-methylpiperazin-1-yl)benzamide] are 105 nM, 25 nM, 11 nM and 17 nM.
In the same order, the values of `CC(C)CN(NC(=O)c1cc2c(NC(=O)c3ccc(N4CCN(C)CC4)cc3)n[nH]c2s1)c1ccc(F)cc1` [Example 42, N-{5-[N′-(4-fluorophenyl)-N′-isobutylhydrazinocarbonyl]-1H-thieno[2,3-c]pyrazol-3-yl}-4-(4-methylpiperazin-1-yl)benzamide] are 1120 nM, 61 nM, 24 nM and 6 nM.
The matching figures for `CCN(NC(=O)c1cc2c(NC(=O)c3ccc(N4CCN(C)CC4)cc3)n[nH]c2s1)c1cccc(Br)c1` [Example 43, N-{5-[N′-(3-bromophenyl)-N′-ethylhydrazinocarbonyl]-1H-thieno[2,3-c]pyrazol-3-yl}-4-(4-methylpiperazin-1-yl)benzamide]: 32 nM, 8 nM, 5 nM and 1 nM.
Take `CN1CCCN(c2ccc(C(=O)Nc3n[nH]c4sc(C(=O)NN(C)c5ccccc5)cc34)cn2)CC1` [Example 44, 6-(4-methyl[1,4]diazepan-1-yl)-N-[5-(N′-methyl-N′-phenylhydrazinocarbonyl)-1H-thieno[2,3-c]pyrazol-3-yl]nicotinamide]: the IC50 in data set [1] came out at 201 nM; in data set [2], 107 nM; in data set [3], 21 nM; in data set [4], 6 nM.
The matching figures for `CN1CCN(c2ccc(C(=O)Nc3n[nH]c4sc(C(=O)N/N=C\c5ccccc5)cc34)cc2)CC1` [Example 45, N-[5-(benzylidenehydrazinocarbonyl)-1H-thieno-[2,3-c]pyrazol-3-yl]-4-(4-methylpiperazin-1-yl)benzamide]: 146 nM, 29 nM, 33 nM and 21 nM.
In the same order, the values of `CN(NC(=O)c1cc2c(NC(=O)c3ccc(OCCN4CCOCC4)cc3)n[nH]c2s1)c1ccccc1` [Example 46, N-[5-(N′-methyl-N′-phenylhydrazinocarbonyl)-1H-thieno[2,3-c]pyrazol-3-yl]-4-(2-morpholin-4-ylethoxy)benzamide] are 100 nM, 275 nM, 12 nM and 6 nM.
